# Publication PMC2866134 (Bioorganic & medicinal chemistry letters, 2010)
# Columns and labels:
# PDGFR-β = PDGFR-β (Homo sapiens, UniProt P09619); test: PDGFR-β inhibition, whole cell phosphotyrosine ELISA cytoblot; format: cell-based; details: whole cell assay
# VEGFR-1 = VEGFR-1 (Homo sapiens, UniProt P17948); test: VEGFR-1 inhibition, whole cell phosphotyrosine ELISA cytoblot; format: cell-based; details: whole cell assay
# VEGFR-1, sequence (P17948 27-1338): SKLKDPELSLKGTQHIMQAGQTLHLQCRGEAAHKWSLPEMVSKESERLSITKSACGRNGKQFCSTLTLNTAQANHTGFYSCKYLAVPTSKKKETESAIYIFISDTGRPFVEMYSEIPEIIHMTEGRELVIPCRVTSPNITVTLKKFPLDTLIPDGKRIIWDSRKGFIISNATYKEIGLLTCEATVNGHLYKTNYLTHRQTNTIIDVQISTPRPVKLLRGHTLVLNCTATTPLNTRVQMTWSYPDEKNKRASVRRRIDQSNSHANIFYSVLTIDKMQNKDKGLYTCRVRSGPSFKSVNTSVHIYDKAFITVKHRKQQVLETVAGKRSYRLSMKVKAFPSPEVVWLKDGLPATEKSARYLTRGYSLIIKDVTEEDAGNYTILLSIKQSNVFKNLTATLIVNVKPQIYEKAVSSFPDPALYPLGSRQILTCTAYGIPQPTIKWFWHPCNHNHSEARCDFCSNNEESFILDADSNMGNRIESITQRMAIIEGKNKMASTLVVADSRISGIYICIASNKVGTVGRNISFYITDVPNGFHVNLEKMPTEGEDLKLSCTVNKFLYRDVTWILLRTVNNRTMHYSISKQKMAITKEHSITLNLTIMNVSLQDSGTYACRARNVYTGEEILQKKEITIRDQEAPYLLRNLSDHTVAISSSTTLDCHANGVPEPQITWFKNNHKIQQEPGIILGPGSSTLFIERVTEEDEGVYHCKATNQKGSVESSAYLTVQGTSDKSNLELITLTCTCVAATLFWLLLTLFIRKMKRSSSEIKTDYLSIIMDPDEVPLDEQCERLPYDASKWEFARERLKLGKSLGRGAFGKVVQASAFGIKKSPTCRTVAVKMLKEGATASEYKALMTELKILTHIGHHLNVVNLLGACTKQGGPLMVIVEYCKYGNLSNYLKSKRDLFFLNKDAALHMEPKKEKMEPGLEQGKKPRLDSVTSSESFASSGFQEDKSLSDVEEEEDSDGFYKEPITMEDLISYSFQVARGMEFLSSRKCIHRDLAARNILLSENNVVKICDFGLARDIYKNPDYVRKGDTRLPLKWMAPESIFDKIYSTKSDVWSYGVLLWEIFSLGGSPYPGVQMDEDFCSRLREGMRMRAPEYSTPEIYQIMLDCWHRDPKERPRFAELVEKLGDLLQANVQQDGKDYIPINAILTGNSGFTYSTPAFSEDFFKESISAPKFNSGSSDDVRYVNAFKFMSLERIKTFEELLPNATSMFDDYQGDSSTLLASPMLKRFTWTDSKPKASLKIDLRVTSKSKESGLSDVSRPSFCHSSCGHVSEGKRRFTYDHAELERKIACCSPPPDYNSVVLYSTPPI
# PDGFR-β, sequence (P09619 33-1106): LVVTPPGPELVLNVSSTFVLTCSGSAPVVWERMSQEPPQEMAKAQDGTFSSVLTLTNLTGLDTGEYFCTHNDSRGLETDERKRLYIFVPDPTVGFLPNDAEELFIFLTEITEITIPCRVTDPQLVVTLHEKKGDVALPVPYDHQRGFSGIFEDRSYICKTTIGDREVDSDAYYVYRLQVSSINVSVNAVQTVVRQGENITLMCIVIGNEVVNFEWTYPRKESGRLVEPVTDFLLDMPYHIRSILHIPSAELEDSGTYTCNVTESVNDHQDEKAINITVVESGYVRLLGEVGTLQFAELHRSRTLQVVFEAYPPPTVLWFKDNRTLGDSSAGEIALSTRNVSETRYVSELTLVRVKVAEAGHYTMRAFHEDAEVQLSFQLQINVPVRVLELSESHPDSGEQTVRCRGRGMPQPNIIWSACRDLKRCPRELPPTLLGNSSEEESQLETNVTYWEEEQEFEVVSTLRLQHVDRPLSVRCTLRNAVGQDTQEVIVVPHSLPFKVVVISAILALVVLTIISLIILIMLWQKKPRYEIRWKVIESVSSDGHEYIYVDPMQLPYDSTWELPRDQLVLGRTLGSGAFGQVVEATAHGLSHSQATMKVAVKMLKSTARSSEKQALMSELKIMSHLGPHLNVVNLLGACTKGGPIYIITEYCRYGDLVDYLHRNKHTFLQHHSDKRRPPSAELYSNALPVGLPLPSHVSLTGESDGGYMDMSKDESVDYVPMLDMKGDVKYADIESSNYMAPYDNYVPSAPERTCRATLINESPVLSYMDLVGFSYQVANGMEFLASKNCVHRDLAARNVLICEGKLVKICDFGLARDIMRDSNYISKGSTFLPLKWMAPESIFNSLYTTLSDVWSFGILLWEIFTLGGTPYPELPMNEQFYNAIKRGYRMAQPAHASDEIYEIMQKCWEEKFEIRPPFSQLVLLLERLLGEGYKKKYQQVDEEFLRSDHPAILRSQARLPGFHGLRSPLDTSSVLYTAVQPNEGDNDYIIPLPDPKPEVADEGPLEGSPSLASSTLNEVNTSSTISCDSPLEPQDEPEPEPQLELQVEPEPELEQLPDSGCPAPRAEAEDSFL
SMILES,"PDGFR-β inhibition, result in words (PDGFR-β)","VEGFR-1 inhibition, result in words (VEGFR-1)"
C#Cc1cccc(Nc2ncnc3[nH]c(CCc4ccccc4)cc23)c1 [Compound 20],inactive,–
FC(F)(F)c1cccc(Nc2ncnc3[nH]c(CCc4ccccc4)cc23)c1 [Compound 21],inactive,inactive
Fc1ccc(Nc2ncnc3[nH]c(CCc4ccccc4)cc23)cc1Br [Compound 22],–,inactive
Fc1ccc(Nc2ncnc3[nH]c(CCc4ccccc4)cc23)cc1C(F)(F)F [Compound 23],inactive,–
Fc1cc(Cl)ccc1Nc1ncnc2[nH]c(CCc3ccccc3)cc12 [Compound 24],inactive,inactive
